Laboratory results from the OligoGym collection.
Several values for one entry are separate records, joined by “and”; a condition that tells them apart may be missing. Equal entries are not always repeated. After the bases stand the sugars from the 5' end (letter, count) and the backbone: PS all phosphorothioate, else s phosphorothioate and o phosphodiester by linkage. Methylation of C is not given here. e = 2'-O-(2-methoxyethyl) (MOE); k = constrained ethyl (cEt); d = 2'-deoxy (DNA)

Biological target: APOL1
Conditions: ASO

Sequence | target mRNA inhibition (A431, 2 µM) | target mRNA inhibition (A431, 0.0156 µM) [%] | target mRNA inhibition (A431, 0.0625 µM) | target mRNA inhibition (A431, 0.25 µM) | target mRNA inhibition (A431, 1 µM)
CGCAATGCTGACTTGG (sugars k2 d4 e3 k2 d5, PS) | 88% |  |  |  | 
CGCAATGCTGACTTGG (sugars kkddddkdkdkddddd, PS) | 94% |  |  |  | 
CGTCAATATATTCTTT (sugars kdddddkekekddddd, PS) | 90% |  |  |  | 
CGTCAATATATTCTTT (sugars kkddddkekekddddd, PS) | 94% | 20 | 41% | 75% | 90%
CGTCAATATATTCTTT (sugars kkkddddkdkdkdddd, PS) | 95% | 23 | 61% | 84% | 93%
CGTTCCAGGCCTCATT (sugars k4 d9 k3, PS) |  |  | 40% | 60% | 82%
CTAATTTTCTGACTGT (sugars kkddddekekeddddd, PS) | 90% |  |  |  | 
CTAATTTTCTGACTGT (sugars kkkddddkekekdddd, PS) | 90% |  |  |  | 
CTGAAGATTGGCTCTG (sugars kkddddekekeddddd, PS) | 53% |  |  |  | 
CTGTTCTAACTCTTGG (sugars k4 d9 k3, PS) |  |  | 61% | 79% | 87%
CTGTTCTAACTCTTGG (sugars kkddddkekekddddd, PS) | 88% |  |  |  | 
CTTCTGTTAGATACAA (sugars k4 d9 k3, PS) |  |  | 46% | 73% | 90%
CTTCTTATGTTATCCT (sugars k4 d9 k3, PS) |  |  | 35% | 72% | 85%
CTTTAAACTCAGGTGA (sugars kkddddkekekkdddd, PS) | 70% |  |  |  | 
CTTTATACCAGTGTCT (sugars k2 d4 e3 k2 d5, PS) | 96% | 12 | 46% | 74% | 92%
CTTTATACCAGTGTCT (sugars kekddddeekkddddd, PS) | 95% | 22 | 41% | 69% | 89%
CTTTATACCAGTGTCT (sugars kkddddkekekddddd, PS) | 86% |  |  |  | 
GAACGCAATGCTGACT (sugars kkkddddkekekdddd, PS) | 48% |  |  |  | 
GAAGATTGGCTCTGGC (sugars k2 d4 e3 k2 d5, PS) | 81% |  |  |  | 

Sequence | target mRNA inhibition (A431, 2 µM) | target mRNA inhibition (A431, 0.0156 µM) [%] | target mRNA inhibition (A431, 0.0625 µM) | target mRNA inhibition (A431, 0.25 µM) | target mRNA inhibition (A431, 1 µM)
GAAGATTGGCTCTGGC (sugars kkkddddkekeddddd, PS) | 75% |  |  |  | 
GAATTATGGAATTGCA (sugars k2 d4 e4 k2 d4, PS) | 95% |  |  |  | 
GAATTATGGAATTGCA (sugars kkddddekekeddddd, PS) | 95% |  |  |  | 
GAATTATGGAATTGCA (sugars kkddddkekekkdddd, PS) | 61% |  |  |  | 
GAATTATGGAATTGCA (sugars kkkddddkekekdddd, PS) | 61% |  |  |  | 
GAGCGATTGTCTTGTT (sugars k4 d9 k3, PS) |  |  | 62% and 83% | 85% and 92% | 92% and 95%
GAGTATTGTTTTTGTG (sugars k3 d5 k3 d5, PS) | 93% and 94% | 37 | 74% and 66% | 91% and 88% | 95% and 94%
GAGTATTGTTTTTGTG (sugars kkddddkdkdkddddd, PS) | 92% | 17 | 34% | 70% | 88%
GAGTATTGTTTTTGTG (sugars kkddddkekekddddd, PS) | 90% |  |  |  | 
GAGTATTGTTTTTGTG (sugars kkkddddkdkdkdddd, PS) | 54% |  |  |  | 
GATGTGTTTAGGCATT (sugars k4 d9 k3, PS) |  |  |  | 71% and 83% | 90% and 91%
GATTTTCCAACAAGGT (sugars k4 d9 k3, PS) |  |  | 54% | 80% | 92%
GCAAGGTTGTCCAGAG (sugars k4 d9 k3, PS) |  |  | 43% | 61% | 61%
GCAATGCTGACTTGGC (sugars kdddddkekekddddd, PS) | 85% |  |  |  | 
GCAATGCTGACTTGGC (sugars kddddkekekeddddd, PS) | 45% |  |  |  | 
GCAGGTTCACATGACA (sugars k4 d9 k3, PS) |  |  | 39% | 58% | 72%
GCAGTTTTGTAAGTGC (sugars k2 d4 e3 k2 d5, PS) | 79% |  |  |  | 
GCAGTTTTGTAAGTGC (sugars kkkddddkekeddddd, PS) | 60% |  |  |  | 
